Among the data in PubChem BioAssay (NCI) are TGI values, retold here.

Experiment in all cases: NCI anticancer screen, dose series, 48 h
Experiment [1] relates to LOX IMVI melanoma.
Experiment [2] deals with HCT-116 colon.
The subject of experiment [3] is SK-MEL-5 melanoma.
Experiment [4] concerns NCI-H23 lung.
Experiment [5] deals with SNB-19 CNS.
The test system of experiment [6] is SR leukemia.
Experiment [7] relates to EKVX NSCLC.
The test system of experiment [8] is DU-145 prostate.
The subject of experiment [9] is A498 renal.
For experiment [10], the system named is M14 melanoma.

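Following 48 hours of exposure in 96-well plates, responses at five concentrations were used to interpolate endpoints linearly. The concentration for full growth arrest is given as TGI.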 Bounds are passed on as bounds.

Regarding `Cc1ccc2c(c1)C1(C)OC(C=CC1=O)O2` (stereo not given), the TGI in experiment [1] amounted to 1.31 µM; in [2], 0.652 µM; in experiment [3], 2.79 µM; in [4], 2.38 µM; in experiment [5], 8.97 µM; in experiment [6], 1.09 µM. Also, the TGI in experiment [7] stood at 7.69 µM; in [8] it was 8.45 µM; in experiment [9] it was 13.4 µM; in experiment [10], 1.13 µM.
For `CC(C)(C)c1ccc(-c2nc3ccc(Cl)cc3c(=O)o2)cc1`, the TGI amounted to 31 µM in [1]; 40.5 µM in [2]; 26.2 µM in experiment [3]; 35 µM in experiment [4]; 80.1 µM in experiment [5]; 47.9 µM in [6]. Also, the TGI in [7] amounted to 70 µM; in experiment [8], 92.4 µM; in [9], 79.4 µM; in experiment [10] it was 49.2 µM.
For the molecule `CNc1nc2n(CCO)c(-c3ccccc3)c(-c3ccccc3)nc-2c(=O)n1`, the TGI in [1], in experiment [2], in experiment [3], in [4], in experiment [5] and in [6] was above 50 µM each time. The TGI in experiment [7], in [8], in [9] and in experiment [10] was above 50 µM in each case.
